The text below walks through data of ChEMBL document CHEMBL1201862, “PubChem BioAssay data set” (2004).

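Compound exposure: 48 hours, 5 concentrations, 96-well plates. The concentration for 50% growth inhibition is given as GI50.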 Active and inactive are the calls of the source. Cut-off read from the data, not from the text of the source: active = GI50 up to about 1.1 µM and inactive = higher.

Test systems include DLD-1; DMS-273; HOP-18; KM-20L2; LXFL 529; M19-MEL; RXF 631; SNB-78; XF498.
Holding throughout (assay): NCI-60 cell line screen, 48 h

With `O=C1c2ccccc2C(=O)c2sc(Nc3ccccc3Cl)nc21`, the GI50 with DLD-1 was 4.68 µM (inactive); in the experiment with DMS-273, 13.5 µM (inactive); in the experiment on HOP-18, 13.4 µM (inactive); with KM-20L2 it was 20.7 µM (inactive); with LXFL 529, 2.27 µM (inactive); with M19-MEL, 1.62 µM (inactive). Besides, the results for the GI50 in the experiment with RXF 631, in the experiment on SNB-78 and with XF498 were 18 µM (inactive), 13.9 µM (inactive) and 16 µM (inactive), respectively.

For the compound `CC[C@@H](C)[C@H]([C@H](CC(=O)N1CCC[C@@H]1[C@@H](OC)[C@H](C)C(=O)N[C@H](Cc1ccccc1)c1nccs1)OC)N(C)C(=O)[C@H](NC(=O)[C@@H](C(C)C)N(C)C)C(C)C`, the GI50 in the experiment on DLD-1 is 0.000387 µM (active); with DMS-273 it was 0.000159 µM (active); in the experiment on HOP-18, 0.00407 µM (active); in the experiment on KM-20L2 it was 6.79e-05 µM (active); with LXFL 529, 0.000502 µM (active); with M19-MEL it was 0.000208 µM (active). The GI50 with RXF 631 is 0.000461 µM (active); in the experiment on SNB-78 it was 0.00108 µM (active).

With `COC(=O)/C(C)=C/[N+](=O)[O-]`, the GI50 was 1.93 µM (inactive) with DLD-1; 17.8 µM (inactive) in the experiment with DMS-273; 18 µM (inactive) in the experiment on HOP-18; 25 µM (inactive) with KM-20L2; 14 µM (inactive) in the experiment on LXFL 529; 17.4 µM (inactive) in the experiment with M19-MEL. For the same compound, the GI50 in the experiment with SNB-78 was 21.1 µM (inactive); in the experiment on XF498, 14.3 µM (inactive).

With `O=C1C=C(Nc2ccc(Cl)cc2C(=O)c2ccccc2)c2ccccc2C1=O`, the GI50 in the experiment on DLD-1, with DMS-273, in the experiment on HOP-18, with KM-20L2, in the experiment with LXFL 529 and in the experiment on RXF 631 was > 100 µM (inactive) throughout. Besides, the GI50 with SNB-78 and in the experiment on XF498 was > 100 µM (inactive) throughout.

As to `O=C(CCC(=O)Nc1cccc(Cl)c1)CC(=O)c1ccc(Cl)cc1`, the GI50 is > 10 µM (inactive) in the experiment on DLD-1; > 100 µM (inactive) with DMS-273; > 100 µM (inactive) in the experiment with KM-20L2; > 100 µM (inactive) in the experiment on LXFL 529; > 100 µM (inactive) in the experiment on RXF 631; > 100 µM (inactive) in the experiment on SNB-78. The GI50 in the experiment on XF498 is > 100 µM (inactive).

On to `COC(=O)N/N=C(/c1nc2ccc([N+](=O)[O-])cc2nc1O)C(O)c1ccc(OC)c(OC)c1` (centres undefined), for which the GI50 is > 100 µM (inactive) with DLD-1; 25 µM (inactive) with DMS-273; > 100 µM (inactive) with HOP-18; > 100 µM (inactive) in the experiment with KM-20L2; 87.1 µM (inactive) in the experiment on LXFL 529; > 100 µM (inactive) with M19-MEL. The GI50 in the experiment with RXF 631 was 44.5 µM (inactive); in the experiment on SNB-78, 28.4 µM (inactive); with XF498 it was 59.2 µM (inactive).

For the compound `COc1cc(Br)c(CC2NCCc3cc(OC)c(OC)cc32)cc1OC` (centres undefined), the GI50 was > 100 µM (inactive) in the experiment with DLD-1; 41.2 µM (inactive) with KM-20L2; 36.7 µM (inactive) in the experiment with LXFL 529; 95.7 µM (inactive) in the experiment with M19-MEL; > 100 µM (inactive) with SNB-78; 11.7 µM (inactive) in the experiment on XF498.

For the compound `COc1ccc(C2COc3c(ccc(OC)c3OC)C2=O)cc1OC` (centres undefined), the GI50 in the experiment on DLD-1, in the experiment with HOP-18, with KM-20L2, in the experiment on LXFL 529, in the experiment with M19-MEL and with SNB-78 was > 100 µM (inactive) throughout. Also, the GI50 in the experiment on XF498 was 94.8 µM (inactive).

With `O=C1CC2CC=C[C@H]3c4cc5c(cc4C(=O)N1C23)OCO5` (some centres undefined), the GI50 with DLD-1, in the experiment on DMS-273, in the experiment on KM-20L2, in the experiment with LXFL 529, in the experiment with M19-MEL and in the experiment with SNB-78 was > 50 µM (inactive) throughout.

Turning to `O=C(N/N=C/c1cc(Cl)cc(Cl)c1O)c1ccncc1`, in the experiment on KM-20L2, the GI50 is 37.3 µM (inactive).

On to `CC1OC(CC(=O)O)Cc2c(O)c3c(c(O)c21)C(=O)C=C(C1=CC(=O)c2c(O)c4c(c(O)c2C1=O)CC(CC(=O)O)OC4C)C3=O` (centres undefined), for which the GI50 with DLD-1 is 12.7 µM (inactive); with DMS-273 it was 20.4 µM (inactive); with HOP-18, 22 µM (inactive); in the experiment on KM-20L2, 22.2 µM (inactive); with LXFL 529 it was 8.81 µM (inactive); with M19-MEL, 20.1 µM (inactive). Moreover, the GI50 with SNB-78 is 25.8 µM (inactive); with XF498 it was 17.5 µM (inactive).

For `O=c1c2ccccc2nc(-c2cccc(Cl)c2)n1NC1OC(CO)C(O)C(O)C1O` (centres undefined), the GI50 in the experiment on DMS-273 is > 100 µM (inactive); in the experiment with HOP-18, 50.8 µM (inactive); with KM-20L2 it was > 100 µM (inactive); with LXFL 529, > 100 µM (inactive); in the experiment with M19-MEL, > 100 µM (inactive); in the experiment on RXF 631 it was > 100 µM (inactive). Also, the GI50 in the experiment with SNB-78 and in the experiment with XF498 was > 100 µM (inactive) throughout.

For the compound `CN(C)CCNc1ccc(CO)c2sc3ccc(O)cc3c(=O)c12`, the GI50 in the experiment with DLD-1 was 3.52 µM (inactive); with DMS-273, 0.615 µM (active); in the experiment on HOP-18 it was 12.9 µM (inactive); with KM-20L2, 6.41 µM (inactive); in the experiment on LXFL 529 it was 4.88 µM (inactive); with M19-MEL it was 3.08 µM (inactive). Moreover, the GI50 is 14.4 µM (inactive) in the experiment on SNB-78 and 4.92 µM (inactive) with XF498.

Consider `COC[C@@H]1[C@H]2OC(C)(C)O[C@H]2C(=O)N1C(=O)c1ccc(OC)cc1`, for which the GI50 with DLD-1, in the experiment with DMS-273, in the experiment on HOP-18, in the experiment with KM-20L2, in the experiment on LXFL 529 and in the experiment on M19-MEL was > 100 µM (inactive) each time. Moreover, the GI50 in the experiment on SNB-78 and with XF498 was > 100 µM (inactive) each time.

Take `CCCCCCCCCCCCCCCCCCOCC(COP(=O)([O-])OCC[N+](C)(C)C)OC` (centres undefined) [EDELFOSINE]: the GI50 with DLD-1 was 5.09 µM (inactive); in the experiment with DMS-273, 3.03 µM (inactive); in the experiment on HOP-18, 13.3 µM (inactive); in the experiment with KM-20L2, 2.9 µM (inactive); with M19-MEL it was 4.58 µM (inactive); with SNB-78 it was 19.3 µM (inactive). The GI50 with XF498 was 11.2 µM (inactive).

Consider `CC1CN1C(=O)NCCCCCCNC(=O)N1CC1C` (centres undefined), for which the GI50 in the experiment with DLD-1 is > 100 µM (inactive); in the experiment with DMS-273, 25.6 µM (inactive); in the experiment on HOP-18, > 100 µM (inactive); in the experiment on KM-20L2, > 100 µM (inactive); with LXFL 529 it was > 100 µM (inactive); in the experiment with M19-MEL, > 100 µM (inactive). In the experiment on XF498, the GI50 was > 100 µM (inactive).

`O=c1ccc2ccccc2c2ccccc12`: the GI50 is 3.39 µM (inactive) in the experiment with DLD-1; 3.33 µM (inactive) with DMS-273; 3.52 µM (inactive) in the experiment with HOP-18; 1.94 µM (inactive) in the experiment on KM-20L2; 2.95 µM (inactive) in the experiment on LXFL 529; 3.15 µM (inactive) in the experiment with M19-MEL. Besides, the GI50 in the experiment with SNB-78 was 4.07 µM (inactive).

For `Cc1cccc(NC(=O)C(=O)Cc2nc3ccccc3nc2O)c1C`, the GI50 with DLD-1, with HOP-18, in the experiment with KM-20L2, with LXFL 529, in the experiment on M19-MEL and in the experiment with SNB-78 was > 100 µM (inactive) throughout. The GI50 in the experiment with XF498 is > 100 µM (inactive).

With `Cc1ccc2c(c1)CN1c3ccc(C)cc3CN2C1c1ccccc1O`, the GI50 is 26.5 µM (inactive) in the experiment with DLD-1; 13.5 µM (inactive) in the experiment on DMS-273; 48.8 µM (inactive) with LXFL 529; 41.1 µM (inactive) in the experiment with M19-MEL; 67.1 µM (inactive) with SNB-78.

Consider `O=c1[nH]c(=O)n(C2CC(O)C(CO)O2)cc1C#Cc1ccc(C(F)(F)F)cc1` (centres undefined), for which the GI50 in the experiment with DLD-1, in the experiment with DMS-273, in the experiment with HOP-18, in the experiment with KM-20L2, in the experiment with LXFL 529 and in the experiment with RXF 631 was > 100 µM (inactive) each time. In the experiment on XF498, the GI50 was > 100 µM (inactive).

As for `Nc1nc(N)c(-c2ccccc2)c(C(=O)Nc2ccc(Cl)c(Cl)c2)n1`, the GI50 in the experiment with DLD-1, in the experiment with DMS-273, in the experiment with HOP-18, in the experiment with KM-20L2, in the experiment on LXFL 529 and in the experiment with M19-MEL was > 100 µM (inactive) in each case. In addition, the GI50 in the experiment on RXF 631 and with SNB-78 was > 100 µM (inactive) throughout.

In the case of `Cc1cccc(/C=N/C23CC4CC(CC(C4)C2)C3)c1`, the GI50 in the experiment with DLD-1, in the experiment on DMS-273, with HOP-18, in the experiment with KM-20L2, with M19-MEL and in the experiment with SNB-78 was > 100 µM (inactive) in each case. The GI50 with XF498 is > 100 µM (inactive).

`COc1ccc(C2CC(C)=Nc3c(O)nc(S)nc3N2)cc1` (centres undefined): the GI50 in the experiment on DMS-273 is 16.7 µM (inactive); with HOP-18, 62.7 µM (inactive); with KM-20L2, 16.7 µM (inactive); in the experiment on LXFL 529, 16.6 µM (inactive); in the experiment with M19-MEL it was 16.9 µM (inactive); with RXF 631 it was 25.6 µM (inactive). Further, the GI50 in the experiment with SNB-78 is 46.7 µM (inactive); in the experiment on XF498, 24.8 µM (inactive).
